The text below walks through data of ChEMBL document CHEMBL2086226, “Synthesis of paclitaxel-BGL conjugates” (Bioorg Med Chem, 2012).

Calls of active or inactive are those of the source. The rule behind the calls is not given here.

A short description of data set [1]: Octanol-water partition coefficient, log P of the compound. Type of data set: physicochemical.
The subject of a further data set is A549. Description: Antitumor activity against human A549 cells xenografted in nude BALB/c mouse assessed as tumor growth inhibition at 3.51 umol/kg, ip administered on day 1, 4 and 7 post-inoculation measured up to 14 days. Type of data set: functional, organism-based. On the technique in general: A xenograft is tissue or cells of one species grown in another, often human tumour cells in immunodeficient mice.

As usually defined, the logP is a log measure of how a compound divides between an organic and an aqueous phase. Read a low logP as a more hydrophilic compound. Take `CC(=O)O[C@H]1C(=O)[C@@]2(C)[C@H]([C@H](OC(=O)c3ccccc3)[C@]3(O)C[C@H](OC(=O)[C@H](OC(=O)CCC(=O)OC(COC(CO)CO)COC(CO)CO)[C@@H](NC(=O)c4ccccc4)c4ccccc4)C(C)=C1C3(C)C)[C@]1(OC(C)=O)CO[C@@H]1C[C@@H]2O`: the logP in data set [1] was 2.26. Consider `CC(=O)O[C@H]1C(=O)[C@@]2(C)[C@H]([C@H](OC(=O)c3ccccc3)[C@]3(O)C[C@H](OC(=O)[C@H](O)[C@@H](NC(=O)c4ccccc4)c4ccccc4)C(C)=C1C3(C)C)[C@]1(OC(C)=O)CO[C@@H]1C[C@@H]2O` [PACLITAXEL], for which the “growth inhibition (GI)” value with A549 was “Active”. In data set [1], the logP is 2.25.

Molecule `CC(=O)O[C@H]1C(=O)[C@]2(C)[C@@H](OC(=O)CCC(=O)OC(COC(CO)CO)COC(CO)CO)C[C@H]3OC[C@@]3(OC(C)=O)[C@H]2[C@H](OC(=O)c2ccccc2)[C@]2(O)C[C@H](OC(=O)[C@H](O)[C@@H](NC(=O)c3ccccc3)c3ccccc3)C(C)=C1C2(C)C` came in with a logP in data set [1] of 1.99. For the molecule `CC(=O)O[C@H]1C(=O)[C@@]2(C)[C@H]([C@H](OC(=O)c3ccccc3)[C@]3(O)C[C@H](OC(=O)[C@H](O)[C@@H](NC(=O)CCC(=O)OC(COC(CO)CO)COC(CO)CO)c4ccccc4)C(C)=C1C3(C)C)[C@]1(OC(C)=O)CO[C@@H]1C[C@@H]2O`, in the data set on A549, the “growth inhibition (GI)” value was “Active”. This molecule yielded a logP in data set [1] of 1.46.
